Molecules are shown by their SMILES. Where two headings read alike, the source gives them in different places.

The results in this text go back to patent publication US20260374739A1, “SMALL MOLECULAR WEIGHT CHEMICAL COMPOUND TO ANTAGONIZE EPH-EPHRIN TETRAMERIZATION AND INHIBIT BIDIRECTIONAL SIGNALING” (THE BOARD OF REGENTS OF THE UNIVERSITY OF TEXAS SYSTEM, priority 2022, published 2026).

For one test, the target named is T1, EphB1-EphrinB2 (Rattus norvegicus, UniProt P09759).
T1 construct: rat EphB1-Fc residues 18-538; mouse EB2-His residues 18-232; purchased R&D Systems (EphB1-Fc); Sino Biologicals (EB2-His)
T1 sequence (P09759 18-538): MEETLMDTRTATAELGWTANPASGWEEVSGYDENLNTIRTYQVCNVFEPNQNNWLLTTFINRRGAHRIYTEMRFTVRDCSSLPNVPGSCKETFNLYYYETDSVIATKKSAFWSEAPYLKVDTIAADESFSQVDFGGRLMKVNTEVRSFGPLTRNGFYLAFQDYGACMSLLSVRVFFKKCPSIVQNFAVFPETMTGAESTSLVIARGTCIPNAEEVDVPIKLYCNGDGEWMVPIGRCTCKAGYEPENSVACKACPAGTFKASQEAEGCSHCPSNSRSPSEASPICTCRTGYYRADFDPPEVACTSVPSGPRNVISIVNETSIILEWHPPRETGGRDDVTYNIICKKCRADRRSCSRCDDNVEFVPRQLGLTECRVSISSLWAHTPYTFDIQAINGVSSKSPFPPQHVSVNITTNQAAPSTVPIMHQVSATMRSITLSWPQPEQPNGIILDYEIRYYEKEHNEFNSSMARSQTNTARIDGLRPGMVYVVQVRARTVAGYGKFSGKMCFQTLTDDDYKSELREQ
The test can be described thus: shortened association (80 sec) Octet, immobilized rat EphB1-Fc binding to 100 nM mEB2-His. Details: species or system mouse EphrinB2. Conditions: for Kd: 1:1 fit, read-out: KD of EphB1-EB2; for increase in rate of dissociation (Kdis) / lower affinity of EphB1-EB2 / tetramer accumulation slope: role: inhibitor. The procedure:
In the above disclosed Octet interaction studies using human proteins the association and dissociation times were doubled to 800 and 1,000 sec, respectively, resulting in a greater accumulation of the super-stable surmountable and extra-super-stable unsurmountable forms of the Eph-Ephrin tetramers. To better assess early binding activities in the absence of A20, biophysical studies were conducted in which the association times were shortened to 80, 40, 20, 15, 10, and 5 sec, followed by a standard 500 sec dissociation, and where biosensor immobilized rEphB1-Fc ectodomain was exposed to 100 nM soluble mEB2-His. Focusing first on the run with 80 sec association step and for illustrative purpose (FIG. 23), the biosensor response indicates the expected rapid formation of EphB1-EB2 dimers with extremely high 87° slope for the first 10-15 sec of the association, which then quickly bends again as expected this time to a −60° slope as tetramers begin to accumulate. […] The dissociation response then quickly bent to level off and plateau at a signal much higher than baseline to represent the species of stable EphB1-EB2 tetramers that remained complexed throughout the remaining dissociation step.
To assess how A20 chemicals alter early binding activities, 80 sec Octet runs were then conducted using 0, 10, and 100 μM concentrations of the A20 salt compound (FIG. 25A 25B). In the absence of A20, the association response of immobilized EphB1 binding to soluble EB2 is typical to that shown in FIG. 24 and indicates rapid early formation of dimers with very high 87° slope that quickly bends to the tetramerization accumulation slope of −60°, and then once in the dissociation step the slope abruptly reverses to show fast-off of the dimer species with a signal that then leveled off in this experiment at 67% of the maximum response and represents accumulation of the stable tetramers. In runs containing A20, even though there was no effect on the early and fast formation of dimers during the 80 sec association step, there was a clear and very strong dose-dependent reduction in accumulation of the tetramer.
This can be especially seen in the analysis of the kinetic data where the parameters were set to calculate information based off of a 1:1 interaction (FIG. 25C). […] This increased rate of dissociation reflects the near absence in formation of stable tetramers and provides a fairly accurate representation of the Kdis that is specifically attributed to the fast-off melting of dimers. Summarizing these biophysical studies, in the presence of A20 only the fast-on/fast-off dimers form and are visualized in the association step, quickly reaching a homeostasis level of dimers forming and melting in equilibrium (fast-on/fast-off), and not being able to associate into tetramers. Then, when placed into the dissociation step, all the existing dimers quickly melt off leaving behind the few tetramers that were able to form. […] Based on the results, it is concluded that A20 chemicals can be classified as specific/select inhibitors of Eph-Ephrin tetramerization.
For orientation: In BLI a coated tip is dipped into the sample, and binding shifts an interference pattern.

The target in test [1] is pre-formed EphrinB2-EphB1 tetramer (Homo sapiens, UniProt P54762). Briefly: Octet competition of pre-existing tetramers, human EphrinB2-EphB1. It is filed as binding. The conditions noted are these: 2, 10, 50 μM. The procedure: Biophysical studies were conducted to explore if A20 is able to disrupt pre-existing stable tetramers, focusing on interactions of immobilized human EphrinB2 binding to soluble human EphB1 and EphB2, and immobilized mouse EphB2 binding to mouse EphrinB2 (FIGS. 29A-29C). In these experiments, sensor-chip immobilized proteins were first exposed to 50 nM of their soluble target protein for an 800 sec association step and 1,000 sec dissociation step to generate pre-formed stable tetramers, which were then subjected to a 1,000 sec competition step that included either 0, 2, 10, or 50 μM concentrations of A20 salt compound. […] The ability of A20 to disrupt pre-existing tetramers was most pronounced for human EB2-EphB2 and cognate murine EphB2-EB2 experiments and indicated a gradual ongoing dose-dependent decline in tetramers throughout the 1,000 sec competition step (and beyond if allowed) and irrespective of whether the human EphrinB2 or murine EphB2 was the immobilized protein.
Sequence of pre-formed EphrinB2-EphB1 tetramer (P54762 18-540 limits assumed): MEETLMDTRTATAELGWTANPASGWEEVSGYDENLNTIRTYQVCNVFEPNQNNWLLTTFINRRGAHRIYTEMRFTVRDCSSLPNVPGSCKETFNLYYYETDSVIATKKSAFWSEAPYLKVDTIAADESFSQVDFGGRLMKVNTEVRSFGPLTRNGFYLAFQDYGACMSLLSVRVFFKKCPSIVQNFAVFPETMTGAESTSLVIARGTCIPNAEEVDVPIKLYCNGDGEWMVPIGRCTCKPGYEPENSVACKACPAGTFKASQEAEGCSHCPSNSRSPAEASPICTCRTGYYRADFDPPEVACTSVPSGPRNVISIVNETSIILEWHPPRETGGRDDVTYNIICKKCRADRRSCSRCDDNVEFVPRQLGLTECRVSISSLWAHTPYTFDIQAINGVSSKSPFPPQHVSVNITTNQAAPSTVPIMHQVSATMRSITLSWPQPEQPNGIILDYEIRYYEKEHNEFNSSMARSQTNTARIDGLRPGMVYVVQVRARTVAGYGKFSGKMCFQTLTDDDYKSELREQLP

One may read the Kd as the equilibrium constant for the complex coming apart. `Oc1c(Br)cc(CN2CCOCC2)c2cccnc12` [Compound 5, 7-bromo-5-(morpholinomethyl)quinolin-8-ol]: the figures for the Kd on EphB1-EphrinB2 (in presence of 10 μM A20) and at EphB1-EphrinB2 (in presence of 100 μM A20) were 0.0105 µM and 0.0462 µM, respectively. The “increase in rate of dissociation (Kdis)” value at EphB1-EphrinB2 (10 μM A20) turned out to be 90 fold; at EphB1-EphrinB2 (100 μM A20), 275 fold. Further, the “lower affinity of EphB1-EB2” value at EphB1-EphrinB2 (10 μM A20) worked out at 76 fold; at EphB1-EphrinB2 (100 μM A20), 337 fold. The tetramer accumulation slope at EphB1-EphrinB2 (10 μM A20, 60° without) is listed as 16 °; on EphB1-EphrinB2 (100 μM A20), “flat line with no slope”. Besides, the “competition of pre-formed tetramers” value in test [1] was “clearly disrupted in a dose-dependent fashion some of the pre-existing EB2-EphB1 tetramers”.
